According to patent publication US20260273084A1, “ANTIBODY-DRUG CONJUGATES” (ADC THERAPEUTICS SA, priority 2023, published 2026):
Numbered stars: 1 amine (or outer) side, 2 acyl side, 3 side chain; on linkers, the order of the positions; unused ones are H or OH. Square brackets hold non-standard residues; d marks the D form. Peptide text beside a SMILES is read from it. * marks the point of attachment. Exatecan = CC[C@@]1(O)C(=O)OCc2c1cc1n(c2=O)Cc2c-1nc1cc(F)c(C)c3c1c2[C@@H](N*)CC3; Propanoyl(3-maleimido) = O=C1C=CC(=O)N1CCC(=O)*; PABC = O=C(OCc1ccc(N[*:1])cc1)[*:2]

Experiment: Aggregation studies: % monomer by SEC after conjugation to test monoclonal antibody
Assay type: physicochemical
Conditions: 95% monomer or greater assessed as low aggregation
Procedure: Aggregation is a process in which molecules self-associate with each other. In the context of the present invention, aggregation levels are assessed during the conjugation of a linker construct to an antibody. During conjugation, aggregation is quantified in terms of percentage monomer content. High percentage monomer values typically equate to a lower degree of aggregation. Percentage monomer values of 93% or 95% or higher typically mean negligible levels of aggregation or none, whereas values below this threshold typically translate to higher levels of aggregation.
2 mg of test monoclonal antibody at 8.87 mg/mL was pH adjusted with 5% 0.5 M Tris, 0.025 M EDTA, pH 8.5 and reduced with 2.3 mol. eq TCEP and then conjugated with 6 mol. eq drug linker. […] Percentage monomer values of 95% or greater are assessed as low aggregation.
Aggregation levels were assessed during the conjugation to the test antibody.
During conjugation, we are ideally targeting a monomer content or percentage monomer of 95% or above. Low percentage monomer values usually translate to a higher degree of aggregation. One could therefore agree that percentage monomer values of 95% or higher mean very low levels of aggregation or none, whereas values below this threshold often translate to higher levels of aggregation.

**Q.** Which “Aggregation (grade in words)” value does the source give for `CC[C@@]1(O)C(=O)OCc2c1cc1n(c2=O)Cc2c-1nc1cc(F)c(C)c3c1c2[C@@H](NC(=O)OCc1ccc(NC(=O)[C@H](C)NC(=O)[C@@H](NC(=O)CNC(=O)CNC(=O)CNC(=O)CNC(=O)CNC(=O)CCN2C(=O)C=CC2=O)C(C)C)cc1)CC3` [Mal-Gly5-VA-PABC-Exatecan] ({Propanoyl(3-maleimido)}-GGGGGVA[PABC]-Exatecan) here?
**A.** None
